# From patent US20240417404A1, “CRYSTALLINE FORMS OF N-[4-[4-(4-MORPHOLINYL)-7H-PYRROLO[2,3-d]PYRIMIDIN-6-YL]PHENYL]-4-[[3(R)-[(1-OXO-2-PROPEN-1-YL)AMINO]-1-[sequence]]METHYL]-2-PYRIDINECARBOXAMIDE AS IRREVERSIBLE INHIBITORS OF MENIN-MLL INTERACTION” (BIOMEA FUSION, INC., priority 2023, published 2024)
# “Also recorded” adds a separate entry of the source. Where two headings read alike, the source gives them in different places.
# Columns and labels:
# [1] = system: MM1.S; experiment: MM cell line proliferation (Cell Titer Glo, four days): MM1.S; format: cell-based; conditions: t(14; 16), KRAS G12A
# Experimental: (§1) DLBCL cell line TOLEDO was cultured in the presence of Compound A or clinical reversible menin inhibitors for six and fourteen hours. Menin protein expression was reduced up to 60% at 1 μM by Compound A after fourteen hours compared to clinical reversible inhibitors at <20% at similar concentrations. Menin protein expression was measured by the Wes system and analyzed using the Compass software (automated western blotting, Protein Simple). Signal was normalized to GAPDH and referenced to DMSO control (FIG. 36E). DLBCL and MM cell lines were cultured with Compound A, bortezomib (PS-341), or DMSO for four days and cell proliferation was measured by Cell Titer Glo. Ex vivo studies of DLBCL and MM models were conducted by measurement of cell proliferation (Cell Titer Glo) after six days of treatment with Compound A, PS-341, or DMSO control.
# [2] = system: patient-derived THL and MYC-amplified DLBCL PDX samples; experiment: Ex vivo DLBCL patient-derived PDX samples (Cell Titer Glo, six days); format: cell-based, human; conditions: THL/R-CHOP-refractory and MYC amplification/R-EPOCH refractory clinical profiles
# Experimental: (§2) Compound A was tested against a THL cell line (VAL), and a DEL cell line (U2932). An expanded panel of DHL cell lines were tested for sensitivity to Compound A. Ex vivo patient samples of THL and MYC-amplified DLBCL were tested with Compound A. Sensitivity of THL and MYC-driven DLBCL in both in vitro and ex vivo models were compared with clinical reversible menin inhibitors. Compound A was tested against a panel of MM cell lines and ex vivo MM patient samples of p53del, 13qdel, and relapsed/refractory cases.
# as §1
# [3] = system: SUDHL8; experiment: DLBCL cell line proliferation (Cell Titer Glo, four days): SUDHL8; format: cell-based; conditions: SUDHL8, GCB
# Experimental: as §1
# [4] = system: JJN3; experiment: MM cell line proliferation (Cell Titer Glo, four days): JJN3; format: cell-based; conditions: JJN3, t(14; 16), NRAS Q61K
# Experimental: as §1
# [5] = system: KRAS mutated CRC, NSCLC and pancreatic cancer cell lines; experiment: Proliferation of KRAS mutated cell lines (CellTiter-Glo, four days); format: cell-based; conditions: Homo sapiens, the 31st table c5, read-out: RAS WT GI50 (μM) Pancreatic (4)
# [6] = system: Pfeiffer; experiment: DLBCL cell line proliferation (Cell Titer Glo, four days): Pfeiffer; format: cell-based; conditions: GCB
# Experimental: as §1
# [7] = system: MM cell lines; experiment: MM cell line panel proliferation (Cell Titer Glo, four days); format: cell-based
# Experimental: as §2, §1
# [8] = system: OCI-LY7; experiment: DLBCL cell line proliferation (Cell Titer Glo, four days): OCI-LY7; format: cell-based; conditions: OCI-LY7, GCB
# Experimental: as §1
# [9] = system: U2932; experiment: DLBCL cell line proliferation (Cell Titer Glo, four days): U2932; format: cell-based; conditions: U2932, DEL-ABC, MYC/BCL2 Overexpression
# Experimental: as §1
# [10] = system: KRAS mutated CRC, NSCLC and pancreatic cancer cell lines; experiment: Proliferation of KRAS mutated cell lines (CellTiter-Glo, four days); format: cell-based, human; conditions: for GI50: Homo sapiens, Pancreatic cancer cell
# Experimental: The inhibitory effect on cell proliferation was investigated in the human pancreas KRAS mutated cell lines MIA PaCa-2, HuP-T4, HPAF-II, human lung KRAS mutated cell line NCI-H358, and human colon KRAS mutated cell lines SW837, SW60, and NCI-H747. […] Cells were grown by adhering to culture flasks, and maintained at 70%-80% confluency.
# ATP is present in all metabolically active cells and is considered as a marker for viable cells. […] The cell proliferation assay was performed using a 96-well plate format.
# Eight concentrations of test compound were assessed in duplicate for each experimental run. 100% cell proliferation is represented by the untreated cells (0.2% DMSO).
# 200 μL of cell suspension were added to each well of a 96-well plate.
# Cell viability was measured using CellTiter Glo. […] Cell viability was measured using CellTiter Glo.
# [11] = system: DHL, THL, and DEL DLBCL cell lines; experiment: DLBCL cell line panel proliferation (Cell Titer Glo, four days); format: cell-based
# Experimental: as §2, §1
# [12] = system: Zucker Diabetic Fatty (ZDF) rats; experiment: Glycemic control and HbA1c in Zucker Diabetic Fatty rats, 28-day dosing plus washout; format: in vivo
# Experimental: Rats were treated daily with Compound 10, liraglutide, or vehicle for twenty-eight days and monitored for an additional twenty-eight days post-treatment.
# Zucker Diabetic Fatty (ZDF) rats were dosed daily with Compound 10, liraglutide, or vehicle for twenty-eight days (n=10 per group) and monitored for an additional twenty-eight days post last dose. Fasting blood glucose, insulin, C-peptide levels, HbA1c, oral glucose tolerance test (OGTT), and body weight were monitored during and post-treatment.
# ZDF Rat Model—five treatment groups 1. Vehicle; 2. Compound 10 at 40 mg/kg; 3. Compound 10 at 85 mg/kg; 4. Compound 10 at 170 mg/kg; and 5. Liraglutide at 0.2 mg/kg; n=10 per group. Group 2 dose (40 mg/kg) was increased to 200 mg/kg on Day 17 for rest of the dosing phase. Daily dosing zero to twenty-eight days days QD→drug wash out twenty-eight to fifty-six days. Rats were monitored for the following parameters through dosing and wash out phases—body weight, fasting blood sugar, blood insulin, C-peptide, OGTT, and HbA1C.
# [13] = system: VAL; experiment: DLBCL cell line proliferation (Cell Titer Glo, four days): VAL; format: cell-based; conditions: THL
# Experimental: as §1
# [14] = system: MM1.R; experiment: MM cell line proliferation (Cell Titer Glo, four days): MM1.R; format: cell-based; conditions: t(14; 16), KRAS G12A
# Experimental: as §1
# [15] = Homo sapiens, read-out: Average IC50 ± Standard Deviation
structure (smiles),measurement,setting,value
"C=CC(=O)N[C@@H]1CCCN(Cc2ccnc(C(=O)Nc3ccc(-c4cc5c(N6CCOCC6)ncnc5[nH]4)cc3)c2)C1 [Compound A, N-[4-[4-(4-morpholinyl)-7H-pyrrolo[2,3-d]pyrimidin-6-yl]phenyl]-4-[[3(R)-[(1-oxo-2-propen-1-yl)amino]-1-piperidinyl]methyl]-2-pyridinecarboxamide]",Average % Max Inhibition by Compound A,[1],99.5%
same,growth inhibition of ex vivo DLBCL patient samples,[2],complete growth inhibition; also recorded: highly effective
same,Average % Max Inhibition by Compound A,[3],99.6%
same,Average % Max Inhibition by Compound A,[4],99.2%
same,GI50,[5],0.43 to 0.83 µM
same,Average % Max Inhibition by Compound A,[6],99.6%
same,cell lethality,[7]; MM cell lines,> 99%
same,growth inhibition,"[7]; MM cell lines harboring mutations in TP53, KRAS, and NRAS, 1 μM exposure, single agent",100%
same,IC50,[8]; [15],0.65 ± 0.26 µM
same,Average % Max Inhibition by Compound A,[8],99.6%
same,IC50,[9]; [15],0.37 ± 0.012 µM
same,Average % Max Inhibition by Compound A,[9],92.4%
same,GI50,"[10]; the 31st table c1, read-out: KRAS G12C GI50 (μM) NSCLC (8)",0.36 to 0.57 µM
same,GI50,"[10]; the 31st table c2, read-out: KRAS G12D GI50 (μM) Pancreatic (1)",0.43 µM
same,GI50,"[10]; the 31st table c3, read-out: KRAS G13D GI50 (μM) CRC (1)",0.57 µM
same,GI50,"[10]; the 31st table c4, read-out: KRAS G12V GI50 (μM) NSCLC (1)",0.29 µM
same,GI50,"[10]; the 31st table c6, read-out: GI50 Summary Tumor Type",0.42 µM
same,GI50,"[10]; the 31st table c7 (second block of heads), read-out: KRAS G12C GI50 (μM) NSCLC (8)",0.34 µM
same,GI50,"[10]; the 31st table c8 (second block of heads), read-out: KRAS G12D GI50 (μM) Pancreatic (1)",0.37 to 0.57 µM
same,GI50,"[10]; the 31st table c9 (second block of heads), read-out: KRAS G13D GI50 (μM) CRC (1)",0.45 µM
same,GI50,"[10]; the 31st table c10 (second block of heads), read-out: KRAS G12V GI50 (μM) NSCLC (1)",1.6 µM
same,growth inhibition of KRAS-mutated cell lines compared to a known KRAS therapeutic,[10]; all cancer cell types tested,significantly greater growth inhibition
same,inhibition of growth,"[10]; most of fourteen CRC, NSCLC, pancreatic KRAS mutated cell lines, four-day treatment",> 90%
same,inhibition of cell viability,[10]; seven of ten KRAS G12C NSCLC cell lines,≥ 90%
same,KRAS G12V GI50 (μM) NSCLC (1),[10]; the 31st table c10 (second block of heads),LR (Limited Response (LR) = % growth inhibition <30%)
same,cell lethality,"[11]; DHL, THL, and DEL DLBCL cell lines",> 90%
same,growth inhibition of THL and DEL cell line models,"[11]; VAL, U2932",complete growth inhibition
same,absolute reduction in HbA1C versus vehicle,"[12]; 28-day daily dosing, Day 29",3.5%
same,"fasting blood glucose levels, mid- and high-dose arms",[12]; 85 and 170 mg/kg,reduction in fasting blood glucose levels similar to liraglutide
same,glycemic control by oral glucose tolerance test (OGTT),"[12]; Day 25, vs vehicle",improved glycemic control
same,HbA1c absolute amount lower than the liraglutide group,[12]; Day 29,1.8%
same,HbA1c reduced from vehicle (relative),[12]; Day 29,33%
same,HbA1c relative reduction stated beside the difference to the liraglutide group,"[12]; Day 29, reduced from vehicle",20%
same,tolerability,[12]; daily for twenty-eight days,All animals tolerated Compound 10 well
same,HbA1c at all doses tested,[12]; effects lasting fifteen days after the last dose,significant reductions in HbA1c
same,"4-hour fasting blood glucose, high-dose arm","[12]; high-dose group, up to Day 29, listed as Compound 10",strong reduction; also recorded: sustained and significant reduction in fasting blood glucose
same,body weight and fasting blood glucose levels over time,[12]; twenty-eight days of treatment (FIG. 28),progressive increase in body weight and fasting blood glucose levels over time
same,Fasting insulin and c-peptide levels,[12]; up to last day of dosing and two weeks post last dose,elevated
same,Average % Max Inhibition by Compound A,[13]; MYC/BCL2/BCL6,97.1%
same,IC50,"[13]; MYC/BCL2/BCL6, read-out: Average IC50 ± Standard Deviation",0.271 ± 0.07 µM
same,Average % Max Inhibition by Compound A,[14],99.6%
